Experimental data reported in patent US5395847A, “Imidazolyl-alkenoic acids” (SmithKline Beecham Corporation, priority 1994, dated 1995).

Legend:
[1] = test system: pressor response to angiotensin II; test: Inhibition of pressor response to angiotensin II in conscious rats; type: in vivo; details: Rattus norvegicus, po, orally, change in mean arterial pressure in response to intravenous angiotensin II, read-out: IC50 (dose of compound needed to produce 50% inhibition of the control response to angiotensin II)
Procedure: Rats are prepared with indwelling femoral arterial and venous catheters and a stomach tube (Gellai et al., Kidney Int. 15:419, 1979). Two to three days following surgery the rats are placed in a restrainer and blood pressure is continuously monitored from the arterial catheter with a pressure transducer and recorded on a polygraph. The change in mean arterial pressure in response to intravenous injections of […] angiotensin II is compared at various time points prior to and following the administration of the compounds intravenously or orally at doses of 0.1 to 300 mg/k g. The dose of compound needed to produce 50% inhibition of the control response to angiotensin II (IC50) is used to estimate the potency of the compounds.

[2] = target: T1, human AT-1 receptors (Homo sapiens, UniProt P30556); test: Radioligand binding assay, 125I-angiotensin II displacement; details: human AT-1 receptors expressed in mouse cell line L h AT-1-D6; 80 pM 125I-angiotensin II; 1 hour at 25° C.; read-out: IC50 (concentration of antagonist needed to displace 50% of the total specifically bound angiotensin II)
T1 construct: expressed in transfected cells
T1 sequence (P30556 1-359): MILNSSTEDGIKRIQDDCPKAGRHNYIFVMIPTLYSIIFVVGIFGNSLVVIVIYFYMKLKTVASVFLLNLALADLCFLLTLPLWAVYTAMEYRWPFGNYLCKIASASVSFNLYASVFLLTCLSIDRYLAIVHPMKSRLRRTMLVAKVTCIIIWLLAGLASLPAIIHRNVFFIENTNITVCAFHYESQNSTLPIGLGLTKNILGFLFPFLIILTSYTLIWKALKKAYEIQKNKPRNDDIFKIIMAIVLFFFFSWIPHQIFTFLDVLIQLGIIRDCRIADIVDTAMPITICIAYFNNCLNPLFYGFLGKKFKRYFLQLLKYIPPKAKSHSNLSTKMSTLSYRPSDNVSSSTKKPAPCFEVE
Procedure: The radioligand binding assay is a modification of a method previously described in detail (Gunther et al., Circ. Res. 47:278, 1980). A stable clone of human AT-1 receptors expressed in the mouse cell line L h AT-1-D6 is used. Cells are incubated in Tris buffer with 80 pM of 125I-angiotensin II with or without angiotensin II antagonists for 1 hour at 25° C. The incubation is terminated by rapid filtration and receptor bound ^125 I-angiotensin II trapped on the filter is quantitated with a gamma counter. The potency of angiotensin II antagonists is expressed as the IC50 which is the concentration of antagonist needed to displace 50% of the total specifically bound angiotensin II.

- IC50 [2]: 342 nM
Structure (SMILES): Br.CCCCc1ncc(/C=C(\Cc2cccs2)C(=O)Oc2ccc3c(c2)CCC3)n1Cc1ccc(C(=O)O)c2ccccc12 [Example 1, E-α-[[2-n-butyl-1-[(4-carboxy-1-naphthaleneyl)methyl]-1H-imidazol-5-yl]methylene]-2-thiophenepropanoic Acid Indan-5-yl Ester, Hydrobromide]
- ED50 [1]: 0.053 mg/kg
